This note sets out measurements from patent publication US7205298B2, “Substituted triazine kinase inhibitors” (Janssen Pharmaceutica N.V., priority 2002, dated 2007).

Holding throughout (format): biochemical
For one experiment, the target named is T1, CDK1:Cyclin-B (Homo sapiens, UniProt P06493).
T1 construct: purchased New England Biolabs 6020; host or cells: insect cells
The experiment in a line: CDK1 Screening Assay. As for the experimental part:
A kinase reaction mixture was prepared containing 50 mM Tris-HCl pH=8, 10 mM MgCl2, 0.1 mM Na3PO4, 1 mM DTT, 10 μM ATP, 0.025 μM biotinylated histone-H1 peptide substrate (also referred to herein as a CDK-1 peptide substrate, see substrate table) and 0.2 μCuries per well ^33P-γ-ATP (2000–3000 Ci/mmol). 70 μL of the kinase reaction mixture was dispensed into the well of a streptavidin coated FlashPlate™ (Cat. # SMP 103, NEN, Boston, Mass.). Then 1 μL of test compound stock in 100% DMSO was added to the wells resulting in a final concentration of 1% DMSO in the reaction with a 100 μl final reaction volume. Next, CDK1:Cyclin-B protein (New England Biolads, infra) was diluted in 50 mM Tris-HCl pH=8.0, 0.1% BSA at a concentration of 1 ng per μL and 30 μl (30 ng enzyme per test well) was added to each well to initiate the reaction. The reaction was incubated for one hour at 30° C. At the end of the 1-hour incubation, the reaction was terminated by aspirating the reaction mixture from the plate and washing the wells twice with PBS containing 100 mM EDTA. The histone-H1 biotinylated peptide substrate became immobilized on the Flashplate™ (Perkin Elmer, NEN Boston, Mass.) and the incorporation of ^33P-γ-ATP was measured by reading the plate on a scintillation counter. Inhibition of the enzymatic activity of CDK1 was measured by observing a reduced amount of ^33P-γ-ATP incorporated into the immobilized peptide.
Assays to test compound inhibition of other kinases were preformed using methods that measure the amount of phosphorylation of a biotinylated peptide substrate. Biotinylated peptide substrates were selected from the literature as appropriate for the enzyme being evaluated. The general procedure used to assay for kinase activity is as follows: a kinase reaction mix was prepared in 50 mM Tris-HCl pH=8, 10 mM MgCl2, 0.1 mM Na3VO4, 1 mM DTT, 10 μM ATP, 0.25–1 μM biotinylated peptide substrate, 0.2–0.8 μCuries per well ^33P-γ-ATP (2000–3000 Ci/mmol). Assay conditions vary slightly for each protein kinase, for example, insulin receptor kinase requires 10 mM MnCl2 for activity and Calmodulin-dependent protein kinase requires calmodulin and 2 mM CaCl2. The reaction mixture was dispensed into the wells of a streptavidin coated Flashplate and 1 μL test compound in 100% DMSO was added to a 100 μL reaction volume resulting in a final concentration of 1% DMSO in the reaction. Enzyme was diluted in 50 mM Tris-HCl pH=8.0, 0.1% BSA and added to each well. The reaction was incubated for one hour at 30° C. in the presence of a test compound. After one hour the reaction mix was aspirated from the plate and the plate was washed with PBS containing 100 mM EDTA. The plate was read on a scintillation counter to determine ^33P-γ-ATP incorporated into the immobilized peptide substrate. Test compounds were assayed in duplicate at 8 concentrations (100 μM, 10 μM, 1 μM, 100 nM, 10 nM, 1 nM, 100 pM, 10 pM). A maximum and minimum signal for the assay was determined on each plate. […] Known inhibitor compounds appropriate for the kinase being assayed were also included on each plate.
The form of VEGF-R (vascular endothelial growth factor receptor-2) used was a fusion protein containing a polyhistidine tag at the N-terminus followed by amino acids 786–1343 of the rat VEGF-R2 kinase domain (GenBank Accession #U93306). The form of CDK1 (cyclin dependent kinase 1) used was isolated from insect cells expressing both the human CDK1 catalytic subunit and its positive regulatory subunit cyclin B (CDK1:cyclin B protein, New England Biolabs, Beverly, Mass., Cat. #6020). The form of CDK4 (cyclin dependent kinase 4) used contains amino acids 769 to 921 of the mouse […] protein found in the GST-retinoblastoma protein construct (Santa Cruz Biotechnology, Santa Cruz, Calif.; Cat. #SC-4112). The form of EGF-R1 (epidermal growth factor receptor 1) used was purified from human A431 cell membranes (Sigma, St. Louis, Mo., Cat.# E3641). […]

Experiment [1] addresses T2, Calmodulin Kinase (calmodulin-dependent protein kinase 2) (Rattus norvegicus, UniProt P11275).
T2 construct: purchased New England Biolabs 6060; host or cells: insect cells
The experiment in a line: Kinase selectivity assay Calmodulin Kinase. As for the experimental part:
(§1) Assays to test compound inhibition of other kinases were preformed using methods that measure the amount of phosphorylation of a biotinylated peptide substrate. Biotinylated peptide substrates were selected from the literature as appropriate for the enzyme being evaluated. The general procedure used to assay for kinase activity is as follows: a kinase reaction mix was prepared in 50 mM Tris-HCl pH=8, 10 mM MgCl2, 0.1 mM Na3VO4, 1 mM DTT, 10 μM ATP, 0.25–1 μM biotinylated peptide substrate, 0.2–0.8 μCuries per well ^33P-γ-ATP (2000–3000 Ci/mmol). Assay conditions vary slightly for each protein kinase, for example, insulin receptor kinase requires 10 mM MnCl2 for activity and Calmodulin-dependent protein kinase requires calmodulin and 2 mM CaCl2. The reaction mixture was dispensed into the wells of a streptavidin coated Flashplate and 1 μL test compound in 100% DMSO was added to a 100 μL reaction volume resulting in a final concentration of 1% DMSO in the reaction. Enzyme was diluted in 50 mM Tris-HCl pH=8.0, 0.1% BSA and added to each well. The reaction was incubated for one hour at 30° C. in the presence of a test compound. […] The plate was read on a scintillation counter to determine ^33P-γ-ATP incorporated into the immobilized peptide substrate. […] A maximum and minimum signal for the assay was determined on each plate. […]

The target of a further experiment is T3, Insulin Receptor Kinase (Homo sapiens, UniProt P06213).
T3 construct: consists of residues 941–1313 of the cytoplasmic domain of the beta-subunit of the human insulin receptor; purchased BIOMOL SE-195
The experiment in a line: Kinase selectivity assay Insulin Receptor Kinase. As for the experimental part: as §1

T3 sequence (P06213 980-1352): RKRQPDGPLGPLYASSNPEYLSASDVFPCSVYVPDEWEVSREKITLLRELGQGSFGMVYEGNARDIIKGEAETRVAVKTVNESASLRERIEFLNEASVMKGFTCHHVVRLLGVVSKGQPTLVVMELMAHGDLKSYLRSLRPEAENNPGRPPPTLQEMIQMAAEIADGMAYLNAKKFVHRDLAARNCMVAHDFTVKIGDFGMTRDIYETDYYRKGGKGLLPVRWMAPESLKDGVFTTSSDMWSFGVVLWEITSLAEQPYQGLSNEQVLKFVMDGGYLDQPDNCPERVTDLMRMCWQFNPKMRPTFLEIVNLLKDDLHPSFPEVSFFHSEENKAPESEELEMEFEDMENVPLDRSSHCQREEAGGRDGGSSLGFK
T1 sequence (P06493 whole entry): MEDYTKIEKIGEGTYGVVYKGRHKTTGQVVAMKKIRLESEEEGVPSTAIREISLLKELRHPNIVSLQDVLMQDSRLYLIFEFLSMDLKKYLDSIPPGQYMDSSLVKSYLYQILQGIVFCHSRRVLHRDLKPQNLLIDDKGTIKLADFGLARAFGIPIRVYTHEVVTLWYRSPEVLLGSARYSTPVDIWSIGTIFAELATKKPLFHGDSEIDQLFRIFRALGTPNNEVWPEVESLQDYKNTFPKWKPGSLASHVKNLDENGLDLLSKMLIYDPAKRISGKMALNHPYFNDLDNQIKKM
T1 sequence (P14635 whole entry partner): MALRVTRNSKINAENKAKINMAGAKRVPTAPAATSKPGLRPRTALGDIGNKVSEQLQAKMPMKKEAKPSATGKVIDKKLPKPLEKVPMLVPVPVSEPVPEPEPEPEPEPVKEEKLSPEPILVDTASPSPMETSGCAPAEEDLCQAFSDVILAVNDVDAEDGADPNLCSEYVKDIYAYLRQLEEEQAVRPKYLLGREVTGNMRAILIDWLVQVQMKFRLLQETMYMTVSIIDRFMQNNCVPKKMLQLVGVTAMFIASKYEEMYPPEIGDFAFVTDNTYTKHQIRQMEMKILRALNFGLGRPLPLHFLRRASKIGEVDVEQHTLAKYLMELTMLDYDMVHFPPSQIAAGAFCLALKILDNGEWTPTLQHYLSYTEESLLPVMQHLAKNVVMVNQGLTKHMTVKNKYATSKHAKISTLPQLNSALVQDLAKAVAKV

A word on the IC50: it is the concentration needed to halve the response being measured. As to `OCCCNc1cncc(-c2ncnc(Nc3cccc(Cl)c3)n2)c1` [Compound 1, 3-((5-(4-((3-chlorophenyl)amino)-1,3,5-triazin-2-yl)-3-pyridinyl)amino)-1-propanol], the half-maximal inhibitory concentration (IC50) was 0.039 µM against CDK1:Cyclin-B, 54.2 µM in experiment [1] and 18.2 µM on Insulin Receptor Kinase.
The like results for `OCCCNc1cc(-c2ncnc(Nc3cccc(Cl)c3)n2)ccn1` [Compound 2, 3-((4-(4-((3-chlorophenyl)amino)-1,3,5-triazin-2-yl)-2-pyridinyl)amino)-1-propanol] were, in that order, 0.016 µM, above 10 µM and above 10 µM.
